# Source: patent publication US20250304576A1 (Cancer Research Technology Limited, priority 2022, published 2025)
# Tests used:
# Recombinant IKKα = molecular target: T1, Recombinant IKKα (Homo sapiens, UniProt O15111); experiment: DELFIA IKKα kinase assay (apparent Ki, Cheng-Prusoff); type: biochemical; conditions: non-italicised figure: DELFIA assay
# T1 construct: purchased Millipore, Dundee, UK
# T1 sequence (O15111 1-745): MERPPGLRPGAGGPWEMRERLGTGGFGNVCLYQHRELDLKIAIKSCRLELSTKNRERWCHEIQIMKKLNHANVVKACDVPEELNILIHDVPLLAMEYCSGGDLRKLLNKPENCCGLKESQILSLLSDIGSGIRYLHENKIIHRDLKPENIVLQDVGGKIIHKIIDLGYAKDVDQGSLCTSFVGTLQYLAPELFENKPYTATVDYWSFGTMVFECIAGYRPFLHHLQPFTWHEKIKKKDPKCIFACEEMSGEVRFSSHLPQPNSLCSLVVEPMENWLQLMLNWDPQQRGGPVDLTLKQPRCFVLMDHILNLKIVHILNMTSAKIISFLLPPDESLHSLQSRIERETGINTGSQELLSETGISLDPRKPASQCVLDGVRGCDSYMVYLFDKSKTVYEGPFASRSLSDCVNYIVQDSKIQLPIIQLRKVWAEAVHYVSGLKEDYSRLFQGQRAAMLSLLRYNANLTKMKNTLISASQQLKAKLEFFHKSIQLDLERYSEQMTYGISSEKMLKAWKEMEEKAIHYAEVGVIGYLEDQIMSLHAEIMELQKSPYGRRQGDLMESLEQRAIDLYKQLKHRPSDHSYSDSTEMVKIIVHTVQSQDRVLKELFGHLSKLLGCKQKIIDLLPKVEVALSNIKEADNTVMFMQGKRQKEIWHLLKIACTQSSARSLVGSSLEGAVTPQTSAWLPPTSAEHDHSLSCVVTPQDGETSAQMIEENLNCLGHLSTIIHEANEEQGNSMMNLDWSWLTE
# Summary of the method: (§1)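 Recombinant IKKα or IKKβ (37 nM) with 0.375 μM biotinylated IκB-α (Ser32) peptide and 40 μM ATP in 40 mM Tris-HCl pH 7.5, 20 mM MgCl2, 60 min at 30° C. Phospho-substrate captured on streptavidin and detected by anti-phospho-IκB-α plus europium anti-mouse IgG time-resolved fluorescence; apparent Ki via Cheng-Prusoff.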
# Recombinant IKKβ = molecular target: T2, Recombinant IKKβ (Homo sapiens, UniProt O14920); experiment: DELFIA IKKβ kinase assay (apparent Ki, Cheng-Prusoff); type: biochemical; conditions: non-italicised figure: DELFIA assay
# T2 construct: purchased Millipore, Dundee, UK
# T2 sequence (O14920 1-756): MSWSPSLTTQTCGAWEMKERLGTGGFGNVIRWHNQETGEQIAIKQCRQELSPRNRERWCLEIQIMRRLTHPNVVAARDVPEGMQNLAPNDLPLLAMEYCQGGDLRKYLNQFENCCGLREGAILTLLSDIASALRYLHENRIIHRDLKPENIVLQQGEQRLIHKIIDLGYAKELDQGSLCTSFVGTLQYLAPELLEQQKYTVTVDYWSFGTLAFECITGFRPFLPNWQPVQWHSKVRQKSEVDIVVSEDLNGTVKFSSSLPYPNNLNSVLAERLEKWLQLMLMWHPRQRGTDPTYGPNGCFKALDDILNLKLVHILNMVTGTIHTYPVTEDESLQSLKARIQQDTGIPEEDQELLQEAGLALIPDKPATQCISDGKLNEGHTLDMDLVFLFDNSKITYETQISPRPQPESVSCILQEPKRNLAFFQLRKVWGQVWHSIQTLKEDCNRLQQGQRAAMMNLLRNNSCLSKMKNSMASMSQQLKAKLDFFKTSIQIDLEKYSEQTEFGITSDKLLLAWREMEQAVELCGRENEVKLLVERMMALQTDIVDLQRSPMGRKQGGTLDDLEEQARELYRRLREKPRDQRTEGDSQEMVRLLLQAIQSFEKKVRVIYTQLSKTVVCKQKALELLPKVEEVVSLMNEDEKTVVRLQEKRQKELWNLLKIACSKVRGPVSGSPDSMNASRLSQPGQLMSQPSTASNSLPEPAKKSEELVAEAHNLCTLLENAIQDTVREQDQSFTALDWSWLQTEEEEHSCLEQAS
# Summary of the method: as §1
SMILES,Ki (Recombinant IKKα),Ki (Recombinant IKKβ)
"Nc1ccccc1C#Cc1c(-c2ccc3[nH]nc(N)c3c2)ccnc1N [Example 78, 5-(2-Amino-3-((2-aminophenyl)ethynyl)pyridine-4-yl)-1H-indazol-3-amine]",17 nM,59 nM
"COC(=O)c1ccc(C#Cc2c(-c3ccc4[nH]nc(N)c4c3)ccnc2N)cc1 [Example 80, Methyl 4-((2-amino-4-(3-amino-1H-indazol-5-yl)150yridine-3-yl)ethynyl)benzoate]",2 nM,15 nM
"COc1ccccc1C#Cc1c(-c2ccc3[nH]nc(N)c3c2)ccnc1N [Example 81, 5-(2-Amino-3-((2-methoxyphenyl)ethynyl)pyridine-4-yl)-1H-indazol-3-amine]",15 nM,484 nM
"CC(C)(O)CCC#Cc1c(-c2ccc3[nH]nc(N)c3c2)ccnc1N [Example 86, 6-(2-Amino-4-(3-amino-1H-indazol-5-yl)pyridine-3-yl)-2-methylhex-5-yn-2-ol]",28 nM,390 nM
"Nc1nccc(-c2ccc3[nH]nc(N)c3c2)c1C#CCCN1CCOCC1 [Example 94, 5-(2-Amino-3-(4-morpholinobut-1-yn-1-yl)pyridin-4-yl)-1H-indazol-3-amine]",38 nM,922 nM
"CNC(=O)C#Cc1c(-c2ccc3[nH]nc(N)c3c2)ccnc1N [Example 98, 3-(2-Amino-4-(3-amino-1H-indazol-5-yl)pyridin-3-yl)-N-methylpropiolamide]",> 10000 nM,> 10000 nM
"Nc1nccc(-c2ccc3[nH]nc(N)c3c2)c1C1CC1 [Example 100, 5-(2-Amino-3-cyclopropylpyridin-4-yl)-1H-indazol-3-amine]",1790 nM,> 10000 nM
"Nc1cc(-c2cc(-c3cccc(F)c3)c3[nH]nc(N)c3c2)ccn1 [Example 105, 5-(2-Aminopyridin-4-yl)-7-(3-fluorophenyl)-1H-indazol-3-amine]",40 nM,500 nM
"Nc1cc(-c2cc(-c3cccc(C(F)(F)F)c3)c3[nH]nc(N)c3c2)ccn1 [Example 106, 5-(2-Aminopyridin-4-yl)-7-(3-(trifluoromethyl)phenyl)-1H-indazol-3-amine]",162 nM,1010 nM
"Nc1cccc(-c2cc(-c3ccnc(N)c3)cc3c(N)n[nH]c23)c1 [Example 107, 7-(3-Aminophenyl)-5-(2-aminopyridin-4-yl)-1H-indazol-3-amine]",14 nM,545 nM
"COc1cccc(-c2cc(-c3ccnc(N)c3)cc3c(N)n[nH]c23)c1 [Example 109, 5-(2-Aminopyridin-4-yl)-7-(3-methoxyphenyl)-1H-indazol-3-amine]",55 nM,587 nM
Nc1cc(-c2cc(-c3cccc(CO)c3)c3[nH]nc(N)c3c2)ccn1 [Example 110],29 nM,290 nM
"CCOC(=O)c1cccc(-c2cc(-c3ccnc(N)c3)cc3c(N)n[nH]c23)c1 [Example 112, Ethyl 3-(3-amino-5-(2-aminopyridin-4-yl)-1H-indazol-7-yl)benzoate]",152 nM,1470 nM
"NC(=O)c1cccc(-c2cc(-c3ccnc(N)c3)cc3c(N)n[nH]c23)c1 [Example 113, 3-(3-Amino-5-(2-aminopyridin-4-yl)-1H-indazol-7-yl)benzamide]",43 nM,840 nM
Nc1cc(-c2cc(-c3cccc(CN4CCOCC4)c3)c3[nH]nc(N)c3c2)ccn1 [Example 116],162 nM,1010 nM
"Nc1cc(-c2cc(-c3ccc(O)cc3)c3[nH]nc(N)c3c2)ccn1 [Example 117, 4-(3-Amino-5-(2-aminopyridin-4-yl)-1H-indazol-7-yl)phenol]",17 nM,235 nM
"CN(C)c1ccc(-c2cc(-c3ccnc(N)c3)cc3c(N)n[nH]c23)cc1 [Example 119, 5-(2-Aminopyridin-4-yl)-7-(4-(dimethylamino)phenyl)-1H-indazol-3-amine]",84 nM,2510 nM
"NC(=O)c1ccc(-c2cc(-c3ccnc(N)c3)cc3c(N)n[nH]c23)cc1 [Example 120, 4-(3-Amino-5-(2-aminopyridin-4-yl)-1H-indazol-7-yl)benzamide]",56 nM,1590 nM
"Nc1cc(-c2cc(-c3ccc(CN4CCOCC4)cc3)c3[nH]nc(N)c3c2)ccn1 [Example 122, 5-(2-Aminopyridin-4-yl)-7-(4-(morpholinomethyl)phenyl)-1H-indazol-3-amine]",52 nM,1260 nM
"CC(C)(C)c1ccc(-c2cc(-c3ccnc(N)c3)cc3c(N)n[nH]c23)cc1 [Example 123, 5-(2-Aminopyridin-4-yl)-7-(4-(tert-butyl)phenyl)-1H-indazol-3-amine]",160 nM,1500 nM

# Continued, values first:
Ki (Recombinant IKKα),Ki (Recombinant IKKβ),SMILES
4 nM,22 nM,"Nc1cccc(C#Cc2c(-c3ccc4[nH]nc(N)c4c3)ccnc2N)c1 [Example 77, 5-(2-Amino-3-((3-aminophenyl)ethynyl)pyridine-4-yl)-1H-indazol-3-amine]"
17 nM,128 nM,"COC(=O)c1cccc(C#Cc2c(-c3ccc4[nH]nc(N)c4c3)ccnc2N)c1 [Example 79, Methyl 3-((2-amino-4-(3-amino-1H-indazol-5-yl)149yridine-3-yl)ethynyl)benzoate]"
19 nM,537 nM,"Nc1nccc(-c2ccc3[nH]nc(N)c3c2)c1C#CCCC(=O)c1ccccc1 [Example 82, 5-(2-Amino-4-(3-amino-1H-indazol-5-yl)pyridine-3-yl)-1-phenylpent-4-yn-1-one]"
15 nM,105 nM,"Nc1nccc(-c2ccc3[nH]nc(N)c3c2)c1C#CCC1CCNCC1 [Example 97, 5-(2-Amino-3-(3-(piperidin-4-yl)prop-1-yn-1-yl)pyridin-4-yl)-1H-indazol-3-amine]"
10 nM,680 nM,"Nc1cc(-c2cc(-c3cccc(O)c3)c3[nH]nc(N)c3c2)ccn1 [Example 108, 3-(3-Amino-5-(2-aminopyridin-4-yl)-1H-indazol-7-yl)phenol]"
12 nM,100 nM,"Nc1cc(-c2cc(-c3cccc(C=O)c3)c3[nH]nc(N)c3c2)ccn1 [Example 111, 3-(3-Amino-5-(2-aminopyridin-4-yl)-1H-indazol-7-yl)benzaldehyde]"
7 nM,461 nM,"Nc1cc(-c2cc(-c3cccc(S(N)(=O)=O)c3)c3[nH]nc(N)c3c2)ccn1 [Example 114, 3-(3-Amino-5-(2-aminopyridin-4-yl)-1H-indazol-7-yl)benzenesulfonamide]"
79 nM,2000 nM,CS(=O)(=O)c1cccc(-c2cc(-c3ccnc(N)c3)cc3c(N)n[nH]c23)c1 [Example 115]
29 nM,406 nM,Nc1cc(-c2cc(-c3ccc(CO)cc3)c3[nH]nc(N)c3c2)ccn1 [Example 118]
27 nM,1480 nM,"Nc1cc(-c2cc(-c3ccc(S(N)(=O)=O)cc3)c3[nH]nc(N)c3c2)ccn1 [Example 121, 4-(3-Amino-5-(2-aminopyridin-4-yl)-1H-indazol-7-yl)benzenesulfonamide]"
224 nM,1760 nM,"Nc1cc(-c2cc(-c3ccccc3Cl)c3[nH]nc(N)c3c2)ccn1 [Example 124, 5-(2-Aminopyridin-4-yl)-7-(2-chlorophenyl)-1H-indazol-3-amine]"
183 nM,796 nM,Nc1cc(-c2cc(-c3ccccc3CO)c3[nH]nc(N)c3c2)ccn1 [Example 125]
571 nM,5030 nM,"Cc1cc(S(N)(=O)=O)ccc1-c1cc(-c2ccnc(N)c2)cc2c(N)n[nH]c12 [Example 126, 4-(3-Amino-5-(2-aminopyridin-4-yl)-1H-indazol-7-yl)-3-methylbenzenesulfonamide]"
